# Measured values reported in patent US10408843B2, “Compositions and methods for detecting S-nitrosylation and S-sulfinylation” (The Regents of the University of Michigan, priority 2013, dated 2019).
# Test system: S-nitrosylated proteins in mammalian cell lysates
# Experiment: Gel-based labeling of endogenous S-nitrosylated proteins in cell lysates
# Assay type: biochemical, human
# Conditions: lysates denatured, alkylated with iodoacetamide; streptavidin detection
# Procedure: FIG. 8. Dose-dependent labeling of S-nitrosylated proteins by biotin-SO2H. 293T and PANC1 cells were lysed in 6 M urea/PBS and alkylated with 50 mM iodoacetamide for 30 minutes, followed by incubation with increasing concentrations of biotin-SO2H for 45 minutes.
# Next, the reactivity of sulfinic acids with native S-nitrosylated proteins was examined. Biotin and fluorescein N-hydroxysuccinimide (NHS) esters were directly coupled to the biological sulfinic acid metabolite hypotaurine (biotin-SO2H) or the sulfonic acid metabolite taurine (biotin-SO3H). Each probe was incubated with mammalian cell lysates pre-alkylated with excess iodoacetamide (FIG. 1b) in 6 M urea/phosphate buffered saline (PBS), and separated by non-reducing SDS-PAGE for transfer to nitrocellulose and streptavidin detection. […]
# Cells and lysates were protected from light and kept on ice throughout the labeling protocol, except when noted. […] Lysate protein concentrations were quantified using the Bio-Rad DC assay, and diluted 3 mg/mL in 6 M urea/PBS. […] For in-gel fluorescence analysis, samples were loaded without boiling using non-reducing SDS-PAGE loading buffer for SDS-PAGE separation. […] In-gel fluorescence and streptavidin blots were analyzed using a GE typhoon scanner at appropriate wavelengths (488/526 for fluorescein and 633/670 for Cy5-Streptavidin).
compound,measurement,value
"O=C(CCCC[C@@H]1SC[C@@H]2NC(=O)N[C@@H]21)NCCS(=O)O [biotin-SO2H, 2-(5-((3aS,4S,6aR)-2-oxohexahydro-1H-thieno[3,4-d]imidazol-4-yl)pentanamido)ethanesulfinic Acid]",labeling of mammalian proteins,labels distinct mammalian proteins
